According to patent US8227433B2, “Use of inhibitors and antisense oligonucleotides of BTK for treating proliferative mastocytosis” (Centre National de la Recherche Scientifique (CNRS), priority 2003, dated 2012):

Key:
HMC1 cells [1] = assay: G418-resistant colony formation of HMC1 cells infected with LNCX or LNCX-AS BTK virus; type: cell-based
Description: HMC1 cells seeded the day before in 6 wells plates (10^5 cells/ well) are infected with increasing doses of LNCX or LNCX-AS BTK virus. 24 hours after infection, cells are washed in PBS and cultured in medium containing geneticine (1.2 mg/ml). After one week, we observed the formation of colonies resistant to geneticine and whose number depends on the quantity of virus used for infection. When comparing the number of colonies of HMC1 resisting to G418 obtained from cells infected with the LNCX or LNCX-AS BTK virus, we observed independently of the virus concentration used, a lower number of colonies of cells infected with LNCX-AS BTK relative to the number of colonies of cells infected with LNCX. For equivalent quantity of virus, we obtained between 5 to 10 fold less colonies of HMC resisting to G418 by infecting with the LNCX-AS BTK virus compared to the infection with the LNCX “empty”.
The 10 to 20% surviving clones are those for which the antisense expression level is weak thereby maintaining a BTK expression level compatible with cellular survival.

HMC-1 cells = assay: Tumor size in nude mice injected with HMC-1 cells expressing the BTK antisense; type: in vivo; details: nude mice injected with 2 millions HMC-1 cells, tumor size assessed few weeks after injection, FIG. 4
Excerpt: We used nude mice, which have been injected with 2 millions HMC-1 cells.

BTK = BTK expression in HMC-1 clones that integrated the retrovirus vector coding for the BTK antisense RNA; type: cell-based, human; details: HMC-1 target cells which integrated the vector; 4 clones; FIG. 3
Excerpt: 2.1 We used antisense RNA to inhibit the expression of BTK in HMC-1, which is resistant to apoptosis. In this regard, we have constructed a retrovirus vector coding for an antisense RNA containing 32 nucleotides directed to the sequence comprised in the AUG region of the BTK gene (SEQ ID No 1).
Target cells, which integrated this vector, show a significant decrease in the expression of BTK. Regarding 4 clones, we have noted a decrease of about 50% of the expression of the BTK (see FIG. 3).

HMC1 cells [2] = assay: Determination of HMC1 cells sensibility to G418 (lethal geneticine dose); type: cell-based, human; details: 6 wells plate; 0 to 1.4 mg/ml tested; colonies visualized one week after seeding
Description: To determine, the lethal geneticine dose for HMC1, cells were seeded in 6 wells plate (10^5 cells/wells) in presence of increasing concentration of geneticine (0; 0.6; 0.8; 1; 1.2; 1.4 mg/ml). One week after seeding, colonies are visualized by crystal purple coloration. It appears that the effective dose was 1.2 mg/ml geneticine in the culture Media. Indeed, at lower doses, we observed development of HMC1 colonies. • -Infection of HMC1 Cells

Row | Compound | cellular mortality (HMC1 cells [1]; HMC1 cells, decrease of BTK expression by the antisense RNA) [%] | surviving clones (HMC1 cells [1]; HMC1 clones with weak antisense expression level) [%] | anti-tumoral effect (size of the tumors) (HMC-1 cells) | anti-tumoral effect (size of the tumors) (HMC-1 cells; listed as antisens oligonucleotide directed against BTK) | decrease of the expression of the BTK (BTK) | lethal (effective) geneticine dose for HMC1 (HMC1 cells [2]) [mg/mL]
1 | 5′ AGAATCACTGCGGCCATAGCTTCTTCTTTCTG 3′ (chemistry not given here) [BTK antisense] | 80 to 90 | 10 to 20 | significant anti-tumoral effects | significantly decrease the size of tumors | about 50% | 
2 | CN[C@@H]1[C@@H](O)[C@@H](O[C@@H]2[C@@H](O)[C@H](O[C@H]3O[C@H]([C@@H](C)O)[C@@H](O)[C@H](O)[C@H]3N)[C@@H](N)C[C@H]2N)OC[C@]1(C)O [geneticine] |  |  |  |  |  | 1.2
